In article PMC11766267 (International Journal of Molecular Sciences, 2025):

What was measured:
[1] = test system: MDA-MB-231; assay: MTT cytotoxicity assay, MDA-MB-231; format: cell-based; conditions: Homo sapiens, 24 h treatment, mean ± SD of triplicate
Method: (§1) Subsequently, 100 µL of dimethyl sulfoxide was introduced to dissolve the insoluble formazan.

[2] = test system: MCF-7; assay: MTT cytotoxicity assay, MCF-7; format: cell-based, human; conditions: 24 h treatment, mean ± SD of triplicate
Method: as §1

[3] = test system: HeLa; assay: MTT cytotoxicity assay, HeLa; format: cell-based; conditions: Homo sapiens, 24 h treatment, mean ± SD of triplicate
Method: as §1

[4] = test system: HCT-116, MDA-MB-231, HeLa, and MCF-7; assay: MTT cytotoxicity assay, ranges stated over several cell lines; format: cell-based; conditions: Homo sapiens, HCT-116, MDA-MB-231, HeLa, MCF-7; range; read-out: IC50 values, range over the cancer cell lines tested
Method: as §1

[5] = test system: HCT-116; assay: MTT cytotoxicity assay, HCT-116; format: cell-based; conditions: Homo sapiens, 24 h treatment, mean ± SD of triplicate
Method: as §1

[6] = MTT cytotoxicity assay, normal cell line WI-38; format: cell-based, human; conditions: human, WI-38 cells (normal human lung fibroblasts), normal (non-cancer) cell line, 24 h treatment
Method: as §1

[7] = test system: MCF-7a; assay: In vitro anti-estrogenic activity assay, MCF-7a
[8] = test system: MCF-7; assay: In vitro anti-estrogenic activity assay, MCF-7
[9] = cell count relative to the control (17β-E2)

SMILES | IC50 [1] [µM] | IC50 ([2]; Homo sapiens, MCF7, 24 h) [µM] | IC50 [3] [µM] | IC50 [4] [µM] | IC50 [5] [µM] | IC50 at 24 h [6] [µM] | Cell Proliferation MCF-7a % [7, 9] [%] | Cell Proliferation MCF-7a Cell Count ([7]; mean ± SD of triplicate) | Cell Proliferation MCF-7 % [8, 9] [%] | Cell Proliferation MCF-7 Cell Count ([8]; mean ± SD of triplicate) | IC50 [2] [µM]
COc1ccc(C(=O)/C=C/c2ccc(OCc3ccccc3)cc2)cc1 [Compound 4s, (E)-3-(4-(Benzyloxy)phenyl)-1-(4-methoxyphenyl)prop-2-en-1-one] | 82.4 ± 4.1 | 64.2 ± 3.5 | 87 ± 4.3 | 61.9 to 91.7 | 73.5 ± 3.9 | 22.3 ± 1.6 | – | – | – | – | –
COc1cccc(C(=O)/C=C/c2ccccc2)c1 [Compound 4j, (E)-1-(3-Methoxyphenyl)-3-phenylprop-2-en-1-one] | 29.3 ± 1.9 | 18.8 ± 1.5 | 34.9 ± 2.2 | – | 24.6 ± 1.7 | 78.2 ± 3.9 | – | – | – | – | –
COc1ccc(/C=C/C(=O)c2ccc(OC)cc2)cc1 [Compound 4o, (E)-1,3-bis(4-Methoxyphenyl)prop-2-en-1-one] | 73.5 ± 4 | 61.9 ± 3.4 | > 100 | 61.9 to 91.7 | 89.2 ± 4.5 | 24.2 ± 1.7 | – | – | – | – | –
COc1cccc(C(=O)/C=C/c2cccc(OCc3ccccc3)c2)c1 [Compound 4p, (E)-3-(3-(Benzyloxy)phenyl)-1-(3-methoxyphenyl)prop-2-en-1-one] | 68.4 ± 3.7 | 57.1 ± 3.2 | 45.2 ± 2.4 | 23.5 to 74.5 | 39.8 ± 2.4 | 92.1 ± 4.9 | – | – | – | – | –
COc1ccc(C(=O)/C=C/c2ccc(Cl)cc2)cc1 [Compound 4n, (E)-3-(4-Chlorophenyl)-1-(4-methoxyphenyl)prop-2-en-1-one] | 48.6 ± 2.8 | 37 ± 2.3 | 74.5 ± 3.9 | 23.5 to 74.5 | 66.1 ± 3.8 | 61.5 ± 3.4 | – | – | – | – | –
CCOc1ccc(/C=C/C(=O)c2ccccc2)cc1 [Compound 4f, (E)-3-(4-Ethoxyphenyl)-1-phenylprop-2-en-1-one] | 46.1 ± 2.4 | 35.3 ± 2.1 | 49.6 ± 2.8 | 23.5 to 74.5 | 57.6 ± 3.3 | 64.7 ± 3.6 | – | – | – | – | –
COc1cccc(C(=O)/C=C/c2ccc(Cl)cc2)c1 [Compound 4k, (E)-3-(4-Chlorophenyl)-1-(3-methoxyphenyl)prop-2-en-1-one] | > 100 | > 100 | > 100 | – | > 100 | > 100 | – | – | – | – | –
COc1ccc(/C=C/C(=O)c2cccc(OC)c2)cc1 [Compound 4l, (E)-1-(3-Methoxyphenyl)-3-(4-methoxyphenyl) prop-2-en-1-one] | 91.7 ± 4.5 | 75.4 ± 3.8 | 88.8 ± 4.6 | 61.9 to 91.7 | 84 ± 4.2 | 16.2 ± 1.3 | – | – | – | – | –
O=C(/C=C/c1cccc(OCc2ccccc2)c1)c1ccccc1 [Compound 4h, (E)-3-(3-(Benzyloxy)phenyl)-1-phenylprop-2-en-1-one] | 53.8 ± 3.3 | 42.1 ± 2.4 | 25.6 ± 1.8 | 23.5 to 74.5 | 46.8 ± 2.7 | 83.4 ± 4.2 | – | – | – | – | –
O=C(/C=C/c1ccccc1OCc1ccccc1)c1ccccc1 [Compound 4g, (E)-3-(2-(Benzyloxy)phenyl)-1-phenylprop-2-en-1-one] | 59.2 ± 3.5 | 48.4 ± 2.6 | 36.5 ± 2.4 | 23.5 to 74.5 | 54 ± 3 | 27.8 ± 1.9 | – | – | – | – | –
C[C@]12CC[C@@H]3c4ccc(O)cc4CC[C@H]3[C@@H]1CC[C@@H]2O [Compound 17β-E2, 17β estradiol, reference compound] | – | – | – | – | – | – | 100 | 20,776 ± 600 | 100 | 18,524 ± 659 | –
COc1ccc(C(=O)/C=C/c2cccc(OCc3ccccc3)c2)cc1 [Compound 4r, (E)-3-(3-(Benzyloxy)phenyl)-1-(4-methoxyphenyl)prop-2-en-1-one] | 51.8 ± 2.9 | 39.3 ± 2.4 | 57 ± 3.2 | 23.5 to 74.5 | 62.6 ± 3.7 | > 100 | – | – | – | – | –
COc1ccc(C(=O)/C=C/c2ccccc2)cc1 [Compound 4m, (E)-1-(4-Methoxyphenyl)-3-phenylprop-2-en-1-one] | 45.9 ± 2.6 | 33 ± 2 | 63.6 ± 3.7 | 23.5 to 74.5 | 59.6 ± 3.5 | 87.6 ± 4.6 | – | – | – | – | –
O=C(/C=C/c1ccc(OCc2ccccc2)cc1)c1ccccc1 [Compound 4i, (E)-3-(4-(Benzyloxy)phenyl)-1-phenylprop-2-en-1-one] | > 100 | > 100 | > 100 | – | > 100 | > 100 | – | – | – | – | 85.5 ± 4.3
